From patent US11723944B2 (priority 2015, dated 2023)

Biological target: BoNT/A holotoxin (Clostridium botulinum, UniProt P0DPI0)
Sequence (P0DPI0 2-448 limits assumed): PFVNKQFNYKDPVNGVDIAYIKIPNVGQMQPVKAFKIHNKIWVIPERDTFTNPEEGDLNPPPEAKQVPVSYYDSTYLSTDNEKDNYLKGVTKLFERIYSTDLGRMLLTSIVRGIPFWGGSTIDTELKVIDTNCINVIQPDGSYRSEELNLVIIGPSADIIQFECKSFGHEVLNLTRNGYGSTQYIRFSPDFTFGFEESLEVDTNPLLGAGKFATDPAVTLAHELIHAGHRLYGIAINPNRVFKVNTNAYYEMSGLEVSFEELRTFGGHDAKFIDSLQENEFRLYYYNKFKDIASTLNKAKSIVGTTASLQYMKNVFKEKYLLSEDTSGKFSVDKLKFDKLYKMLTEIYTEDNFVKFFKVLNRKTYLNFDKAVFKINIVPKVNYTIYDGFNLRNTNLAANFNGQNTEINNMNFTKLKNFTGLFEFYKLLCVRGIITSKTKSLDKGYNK

NH2-Dab(DNP)-R-[Lys(N3)-T-Dab-Pra]-L-Lys(DBCO-STP)-Tz4-G-Aib-L-[Pra-NYRWL-Lys(N3)] [Inh-2-STP]
latest time after exposure with partial rescue: ≤ 3 h
rescue from internalized BoNT (SNAP-25 cleavage): partial rescue
